In ChEMBL document CHEMBL1152008, “N,N-disubstituted benzopyran-4-(N-cyano)carboxamidines, cromakalim analogs with selective activity for guinea pig trachealis” (Bioorg Med Chem Lett, 1993):

Key:
Type in all cases: functional
Cavia porcellus [1] = species on record: Cavia porcellus; assay: Tested for relaxation of guinea pig trachealis smooth muscle
Rattus norvegicus [2] = species on record: Rattus norvegicus; assay: Tested for relaxation of rat aorta smooth muscle
Rattus norvegicus [3] = species on record: Rattus norvegicus; assay: Tested for relaxation of rat aorta smooth muscle precontracted with 30 mM KCI by 50%, activity expresses as negative logarithm of molar concentration
Cavia porcellus [4] = species on record: Cavia porcellus; assay: Tested for the ability to inhibit spontaneous tone in guinea pig trachealis by 50%, activity expresses as negative logarithm of molar concentration

Compound | EC50 (Rattus norvegicus [3]) | EC50 (Cavia porcellus [4]) | IA (Cavia porcellus [1]) | IA (Rattus norvegicus [2])
CC1(C)Oc2ccc(C#N)cc2[C@H](N2CCCC2=O)[C@H]1O (single isomer, unassigned) [(-)-CROMAKALIM] | – | – | 85.1% | 74.7%
CN(C)/C(=N\C#N)C1=CC(C)(C)Oc2ccc([N+](=O)[O-])cc21 | > 31600 nM | – | 90.6% | –
CCN(CC)/C(=N\C#N)C1=CC(C)(C)Oc2ccc([N+](=O)[O-])cc21 | > 31600 nM | > 31600 nM | – | –
CCN(C)/C(=N\C#N)C1=CC(C)(C)Oc2ccc([N+](=O)[O-])cc21 | > 31600 nM | 178 nM | 77.9% | –
CC(N/C(=N\C#N)Nc1ccncc1)C(C)(C)C (configuration not stated) [PINACIDIL ANHYDROUS] | – | – | 97.3% | 91.9%

Second part, led by results:

EC50 (Rattus norvegicus [3]) | EC50 (Cavia porcellus [4]) | Compound | IA (Cavia porcellus [1]) | IA (Rattus norvegicus [2])
89.1 nM | 170 nM | CC/N=C(/NC#N)C1=CC(C)(C)Oc2ccc([N+](=O)[O-])cc21 | 85.3% | 75.1%
15.1 nM | 23.4 nM | C/N=C(/NC#N)C1=CC(C)(C)Oc2ccc([N+](=O)[O-])cc21 | 86.5% | 79.9%
– | 646 nM | C/N=C(/NC#N)C1=CC(C)(C)Oc2ccc(C#N)cc21 | 86% | 73%
